Where two headings read alike, the source gives them in different places.
How the values were obtained:
Assay in all cases: SelectScreen Kinase Profiling, single point inhibition and IC50 for off-target kinases
Type in all cases: biochemical
off-target kinases [1] = molecular target: off-target kinases (Homo sapiens, UniProt P27361); details: MAPK3 (ERK1), ZLYTE, ATP Km app
off-target kinases [2] = molecular target: off-target kinases (Homo sapiens, UniProt Q15418); details: RPS6KA1 (RSK1), ZLYTE, ATP Km app
off-target kinases [3] = molecular target: off-target kinases (Homo sapiens, UniProt Q9UM73, F1174L); details: ALK F1174L, mutant y, LanthaScreen Binding
off-target kinases [4] = molecular target: T1, off-target kinases (Homo sapiens, UniProt Q16832, T654M); details: DDR2 T654M, LanthaScreen Binding
T1 sequence (Q16832 22-855 T654M): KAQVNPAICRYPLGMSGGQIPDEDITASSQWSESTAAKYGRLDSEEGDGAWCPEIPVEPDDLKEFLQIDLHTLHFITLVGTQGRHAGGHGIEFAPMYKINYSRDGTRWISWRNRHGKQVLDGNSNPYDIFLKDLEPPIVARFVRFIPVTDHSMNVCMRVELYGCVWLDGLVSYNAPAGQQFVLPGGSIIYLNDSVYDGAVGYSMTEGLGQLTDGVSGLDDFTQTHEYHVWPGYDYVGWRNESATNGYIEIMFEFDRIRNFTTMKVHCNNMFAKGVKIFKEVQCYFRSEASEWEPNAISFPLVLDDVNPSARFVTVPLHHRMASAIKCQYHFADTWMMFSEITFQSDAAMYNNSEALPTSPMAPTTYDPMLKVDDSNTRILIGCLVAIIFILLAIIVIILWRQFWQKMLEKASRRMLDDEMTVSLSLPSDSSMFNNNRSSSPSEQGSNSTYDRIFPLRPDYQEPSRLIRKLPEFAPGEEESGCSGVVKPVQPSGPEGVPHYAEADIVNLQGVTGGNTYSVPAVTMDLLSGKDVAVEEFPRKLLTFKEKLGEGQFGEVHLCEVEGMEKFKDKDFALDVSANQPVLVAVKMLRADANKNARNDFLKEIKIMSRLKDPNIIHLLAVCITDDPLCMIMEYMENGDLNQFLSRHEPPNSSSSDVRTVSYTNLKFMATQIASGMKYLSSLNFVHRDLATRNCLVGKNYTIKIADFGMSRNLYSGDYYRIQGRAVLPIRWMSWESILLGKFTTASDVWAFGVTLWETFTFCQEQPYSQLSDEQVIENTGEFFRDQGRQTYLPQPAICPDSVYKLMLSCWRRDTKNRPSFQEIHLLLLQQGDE

off-target kinases [5] = molecular target: off-target kinases (Homo sapiens, UniProt Q15303); details: ERBB4 (HER4), ZLYTE, ATP Km app
off-target kinases [6] = molecular target: off-target kinases (Homo sapiens, UniProt Q15208); details: STK38 (NDR), LanthaScreen Binding
off-target kinases [7] = molecular target: off-target kinases (Homo sapiens, UniProt Q13555); details: CAMK2G (CaMKII gamma), LanthaScreen Binding
off-target kinases [8] = molecular target: off-target kinases (Homo sapiens, UniProt Q96S53); details: TESK2, LanthaScreen Binding
off-target kinases [9] = molecular target: off-target kinases (Homo sapiens, UniProt P19525); details: EIF2AK2 (PKR), LanthaScreen Binding
Chain of off-target kinases (Homo sapiens, UniProt P19525) (P19525 whole entry): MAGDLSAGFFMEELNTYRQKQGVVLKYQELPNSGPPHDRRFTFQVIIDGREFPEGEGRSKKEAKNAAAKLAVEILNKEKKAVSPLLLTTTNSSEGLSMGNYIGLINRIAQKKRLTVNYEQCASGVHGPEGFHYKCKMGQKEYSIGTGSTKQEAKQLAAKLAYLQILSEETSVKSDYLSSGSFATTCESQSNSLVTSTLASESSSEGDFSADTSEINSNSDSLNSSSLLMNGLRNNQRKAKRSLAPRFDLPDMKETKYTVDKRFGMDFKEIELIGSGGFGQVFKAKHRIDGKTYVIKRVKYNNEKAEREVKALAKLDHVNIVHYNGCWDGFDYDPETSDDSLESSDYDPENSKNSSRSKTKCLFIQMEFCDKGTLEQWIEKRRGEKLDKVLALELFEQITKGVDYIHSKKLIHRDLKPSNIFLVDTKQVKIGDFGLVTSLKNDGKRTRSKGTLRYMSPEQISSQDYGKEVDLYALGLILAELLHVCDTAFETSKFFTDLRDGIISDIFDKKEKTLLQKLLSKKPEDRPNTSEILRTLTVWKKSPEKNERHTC

Chain of off-target kinases (Homo sapiens, UniProt Q96S53) (Q96S53 whole entry): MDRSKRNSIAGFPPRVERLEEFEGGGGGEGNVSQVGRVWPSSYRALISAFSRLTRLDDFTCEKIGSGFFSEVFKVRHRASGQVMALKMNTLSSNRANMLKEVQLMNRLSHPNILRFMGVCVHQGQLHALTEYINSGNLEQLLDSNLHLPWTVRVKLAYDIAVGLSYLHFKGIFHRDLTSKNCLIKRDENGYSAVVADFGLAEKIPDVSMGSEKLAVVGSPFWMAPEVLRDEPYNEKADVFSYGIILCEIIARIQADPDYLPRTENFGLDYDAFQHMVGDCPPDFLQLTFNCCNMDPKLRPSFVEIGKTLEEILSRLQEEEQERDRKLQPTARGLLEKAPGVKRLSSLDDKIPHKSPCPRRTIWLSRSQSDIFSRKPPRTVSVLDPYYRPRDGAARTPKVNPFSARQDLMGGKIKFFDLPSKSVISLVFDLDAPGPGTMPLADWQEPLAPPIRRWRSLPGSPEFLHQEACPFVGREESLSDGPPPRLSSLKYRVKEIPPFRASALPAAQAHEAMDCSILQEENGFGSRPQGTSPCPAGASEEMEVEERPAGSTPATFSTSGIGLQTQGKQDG
Chain of off-target kinases (Homo sapiens, UniProt Q9UM73, F1174L) (Q9UM73 19-1620 F1174L): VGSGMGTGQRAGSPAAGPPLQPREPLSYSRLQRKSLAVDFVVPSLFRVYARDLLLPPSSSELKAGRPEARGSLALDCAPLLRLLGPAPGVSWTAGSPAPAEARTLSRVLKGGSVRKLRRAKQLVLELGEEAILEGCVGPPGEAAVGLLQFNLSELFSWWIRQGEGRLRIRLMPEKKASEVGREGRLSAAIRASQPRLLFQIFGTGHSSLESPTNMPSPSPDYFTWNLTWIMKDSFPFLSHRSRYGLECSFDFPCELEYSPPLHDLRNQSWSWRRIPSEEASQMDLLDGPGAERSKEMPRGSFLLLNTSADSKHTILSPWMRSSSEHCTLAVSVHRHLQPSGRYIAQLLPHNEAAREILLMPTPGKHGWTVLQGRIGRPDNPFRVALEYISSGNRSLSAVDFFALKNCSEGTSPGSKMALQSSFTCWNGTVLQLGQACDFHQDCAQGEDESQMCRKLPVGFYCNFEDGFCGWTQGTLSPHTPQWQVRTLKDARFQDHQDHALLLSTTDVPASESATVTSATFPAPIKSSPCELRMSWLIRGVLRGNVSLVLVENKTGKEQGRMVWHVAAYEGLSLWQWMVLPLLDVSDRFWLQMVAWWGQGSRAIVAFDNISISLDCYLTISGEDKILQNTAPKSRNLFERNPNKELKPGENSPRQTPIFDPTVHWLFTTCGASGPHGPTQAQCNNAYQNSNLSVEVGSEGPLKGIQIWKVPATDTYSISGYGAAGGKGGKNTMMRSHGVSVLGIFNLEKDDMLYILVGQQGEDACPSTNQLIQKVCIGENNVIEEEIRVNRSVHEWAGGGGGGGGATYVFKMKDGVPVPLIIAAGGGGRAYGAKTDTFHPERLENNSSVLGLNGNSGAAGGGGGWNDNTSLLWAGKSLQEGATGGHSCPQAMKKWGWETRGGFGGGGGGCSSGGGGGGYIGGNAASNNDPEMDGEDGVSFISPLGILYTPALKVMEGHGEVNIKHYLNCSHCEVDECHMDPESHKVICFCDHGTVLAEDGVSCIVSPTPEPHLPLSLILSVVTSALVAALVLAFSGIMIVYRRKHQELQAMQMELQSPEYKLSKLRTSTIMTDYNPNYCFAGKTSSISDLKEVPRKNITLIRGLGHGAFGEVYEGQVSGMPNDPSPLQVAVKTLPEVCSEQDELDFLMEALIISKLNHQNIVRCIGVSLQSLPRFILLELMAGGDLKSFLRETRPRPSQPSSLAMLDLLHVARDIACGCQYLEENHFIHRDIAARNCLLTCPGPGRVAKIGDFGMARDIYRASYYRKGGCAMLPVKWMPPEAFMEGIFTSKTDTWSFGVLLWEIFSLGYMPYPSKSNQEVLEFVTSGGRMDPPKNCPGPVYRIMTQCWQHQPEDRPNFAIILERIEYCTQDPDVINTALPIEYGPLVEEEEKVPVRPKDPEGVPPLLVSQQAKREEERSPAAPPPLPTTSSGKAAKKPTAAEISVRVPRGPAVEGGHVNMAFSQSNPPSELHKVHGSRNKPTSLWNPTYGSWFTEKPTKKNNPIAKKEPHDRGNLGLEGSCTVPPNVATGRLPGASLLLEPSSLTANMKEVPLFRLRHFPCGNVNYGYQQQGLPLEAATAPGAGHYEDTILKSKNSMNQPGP
Chain of off-target kinases (Homo sapiens, UniProt Q15303) (Q15303 26-1308): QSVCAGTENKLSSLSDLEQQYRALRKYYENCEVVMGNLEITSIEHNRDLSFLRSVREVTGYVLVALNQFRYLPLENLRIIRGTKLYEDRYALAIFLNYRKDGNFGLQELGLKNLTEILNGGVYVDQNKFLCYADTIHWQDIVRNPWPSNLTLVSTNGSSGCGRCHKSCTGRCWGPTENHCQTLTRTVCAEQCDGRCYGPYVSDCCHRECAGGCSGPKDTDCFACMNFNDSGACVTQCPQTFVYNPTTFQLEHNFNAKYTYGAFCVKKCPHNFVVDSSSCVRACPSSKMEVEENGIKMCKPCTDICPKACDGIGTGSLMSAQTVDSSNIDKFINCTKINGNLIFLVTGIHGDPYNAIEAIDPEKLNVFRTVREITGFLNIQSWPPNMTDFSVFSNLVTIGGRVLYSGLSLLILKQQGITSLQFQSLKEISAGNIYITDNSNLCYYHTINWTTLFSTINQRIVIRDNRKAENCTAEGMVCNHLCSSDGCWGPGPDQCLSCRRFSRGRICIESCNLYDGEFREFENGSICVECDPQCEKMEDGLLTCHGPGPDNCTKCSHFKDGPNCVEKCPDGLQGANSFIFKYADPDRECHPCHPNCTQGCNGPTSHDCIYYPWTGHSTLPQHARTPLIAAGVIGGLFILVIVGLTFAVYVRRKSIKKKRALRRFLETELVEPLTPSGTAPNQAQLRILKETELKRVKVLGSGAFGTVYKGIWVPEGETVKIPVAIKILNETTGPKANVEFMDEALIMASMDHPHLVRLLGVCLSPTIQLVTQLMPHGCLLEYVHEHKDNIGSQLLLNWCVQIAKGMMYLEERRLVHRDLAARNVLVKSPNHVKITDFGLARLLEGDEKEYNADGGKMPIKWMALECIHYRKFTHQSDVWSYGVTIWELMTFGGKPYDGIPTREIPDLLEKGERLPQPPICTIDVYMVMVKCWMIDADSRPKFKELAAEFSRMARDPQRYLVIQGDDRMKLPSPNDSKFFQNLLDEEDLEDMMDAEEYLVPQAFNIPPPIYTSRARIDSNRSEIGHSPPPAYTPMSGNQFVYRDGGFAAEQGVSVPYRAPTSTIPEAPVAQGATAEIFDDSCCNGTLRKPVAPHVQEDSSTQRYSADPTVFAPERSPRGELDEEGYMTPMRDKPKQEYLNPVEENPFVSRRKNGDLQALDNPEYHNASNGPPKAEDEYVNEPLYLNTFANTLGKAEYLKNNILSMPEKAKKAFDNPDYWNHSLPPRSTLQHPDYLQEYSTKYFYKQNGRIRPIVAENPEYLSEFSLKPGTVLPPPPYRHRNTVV
Chain of off-target kinases (Homo sapiens, UniProt Q15208) (Q15208 whole entry): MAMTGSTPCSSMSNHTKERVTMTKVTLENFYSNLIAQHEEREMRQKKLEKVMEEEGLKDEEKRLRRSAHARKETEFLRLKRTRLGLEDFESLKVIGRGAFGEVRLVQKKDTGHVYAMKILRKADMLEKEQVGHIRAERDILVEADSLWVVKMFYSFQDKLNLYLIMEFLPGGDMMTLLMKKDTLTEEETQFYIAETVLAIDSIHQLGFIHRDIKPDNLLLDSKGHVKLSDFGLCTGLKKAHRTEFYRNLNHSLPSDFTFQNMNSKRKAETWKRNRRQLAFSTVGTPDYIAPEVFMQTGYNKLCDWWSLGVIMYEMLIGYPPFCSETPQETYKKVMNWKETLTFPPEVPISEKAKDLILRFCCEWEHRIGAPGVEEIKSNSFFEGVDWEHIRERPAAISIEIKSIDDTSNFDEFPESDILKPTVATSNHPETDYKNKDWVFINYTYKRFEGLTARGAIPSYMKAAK
Chain of off-target kinases (Homo sapiens, UniProt Q13555) (Q13555 whole entry): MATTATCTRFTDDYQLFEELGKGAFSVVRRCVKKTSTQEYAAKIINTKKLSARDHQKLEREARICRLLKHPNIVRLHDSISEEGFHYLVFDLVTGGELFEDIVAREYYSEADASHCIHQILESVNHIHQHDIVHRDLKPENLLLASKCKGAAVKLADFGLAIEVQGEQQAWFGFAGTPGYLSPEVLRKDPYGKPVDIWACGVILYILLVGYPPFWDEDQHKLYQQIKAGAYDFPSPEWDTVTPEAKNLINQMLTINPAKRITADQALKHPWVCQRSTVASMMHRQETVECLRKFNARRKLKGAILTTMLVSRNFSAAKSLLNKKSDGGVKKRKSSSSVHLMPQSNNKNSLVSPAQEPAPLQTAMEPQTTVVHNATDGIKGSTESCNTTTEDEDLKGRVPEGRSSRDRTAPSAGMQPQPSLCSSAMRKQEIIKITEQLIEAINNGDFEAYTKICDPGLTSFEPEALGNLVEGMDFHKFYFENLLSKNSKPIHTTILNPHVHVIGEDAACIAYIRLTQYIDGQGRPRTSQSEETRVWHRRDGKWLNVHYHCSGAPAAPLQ

## N#Cc1cc(-c2ncnc(Nc3ccc(N4CCN(C5COC5)CC4)cc3)n2)ccc1OC1CCOCC1 [Compound 1, 5-(4-((4-(4-(oxetan-3-yl)piperazin-1-yl)phenyl)amino)-1,3,5-triazin-2-yl)-2-((tetrahydro-2H-pyran-4-yl)oxy)benzonitrile]
off-target kinases [1]; read-out: % Inhibition 1
  inhibition: 3%
off-target kinases [1]; read-out: % Inhibition 2
  inhibition: -2%
off-target kinases [1]; read-out: % Inhibition Avg
  inhibition: 0%
off-target kinases [2]; read-out: % Inhibition 1
  inhibition: 15%
off-target kinases [2]; read-out: % Inhibition 2
  inhibition: 11%
off-target kinases [2]; read-out: % Inhibition Avg
  inhibition: 13%
off-target kinases [3]; read-out: % Inhibition 1
  inhibition: 12%
off-target kinases [3]; read-out: % Inhibition 2
  inhibition: 14%
off-target kinases [3]; read-out: % Inhibition Avg
  inhibition: 13%
off-target kinases [4]; read-out: % Inhibition 1
  inhibition: 56%
off-target kinases [4]; read-out: % Inhibition 2
  inhibition: 57%
off-target kinases [4]; read-out: % Inhibition Avg
  inhibition: 57%
off-target kinases [5]; read-out: % Inhibition 1
  inhibition: 8%
off-target kinases [5]; read-out: % Inhibition 2
  inhibition: 5%
off-target kinases [5]; read-out: % Inhibition Avg
  inhibition: 6%
off-target kinases [6]; read-out: % Inhibition 1
  inhibition: 51%
off-target kinases [6]; read-out: % Inhibition 2
  inhibition: 49%
off-target kinases [6]; read-out: % Inhibition Avg
  inhibition: 50%
off-target kinases [7]; read-out: % Inhibition 1
  inhibition: 18%
off-target kinases [7]; read-out: % Inhibition 2
  inhibition: 19%
off-target kinases [7]; read-out: % Inhibition Avg
  inhibition: 18%
off-target kinases [8]; read-out: % Inhibition 1
  inhibition: 14%
off-target kinases [8]; read-out: % Inhibition 2
  inhibition: -3%
off-target kinases [8]; read-out: % Inhibition Avg
  inhibition: 6%
off-target kinases [9]; read-out: % Inhibition 1
  inhibition: 90%
off-target kinases [9]; read-out: % Inhibition 2
  inhibition: 89%
off-target kinases [9]; read-out: % Inhibition Avg
  inhibition: 89%

Source: patent US11572590B2, “Methods for evaluating tumor cell spheroids using 3D microfluidic cell culture device” (Dana-Farber Cancer Institute, Inc., priority 2017, dated 2023)
